We go through eleven molecules from patent publication US20210179591A1, “NEW COMPOUNDS FOR USE AS A THERAPEUTICALLY ACTIVE SUBSTANCE AND IN PARTICULAR FOR USE IN THE TREATMENT OF TUMORS” (ETH ZURICH, priority 2017, published 2021).

Read-outs that look alike come from different tables or passages of the source.

One assay has as its target T1, GST-DYRK1B (Homo sapiens, UniProt Q9Y463).
T1 construct: purchased ThermoFisher
The experiment in a line: IC50 determination of DYRK1B inhibitors (ADP-Glo in vitro kinase assay with DYRKtide). The assay is classed as biochemical. The following applies: ATP 100 μM. As for the experimental part:
In a preferred embodiment, the compounds of the present invention show inhibition of DYRK1B and/or DYRK1A to a higher extent than expected by the skilled person. The inhibition may be expressed as IC50, i.e. the concentration necessary to inhibit activity to 50%. […] The IC50 value may be determined using methods such as those described in the examples. As such, a suitable method comprises the steps of incubating GST-DYRK1B (e.g. at 5 nM) and DYRKtide (e.g. at 50 μM) in kinase buffer, following compound dispensing (e.g. 1 μl), e.g. 2 μl of ATP (final concentration e.g. 100 μM) and incubating, preferably at room temperature. After that, a detectable compound such as ADP-Glo™ reagent can be dispensed and incubated, preferably at room temperature. Finally, Kinase Detection Reagent can be dispensed and the solution be incubated before measuring.
Compounds of formula 16, 12, 14, 10 and 19 inhibited DYRK1B (SEQ. ID. NO. 1) kinase activity with an IC50 of 2 μM, 2 μM, 3 μM, 4 μM and 3 μM respectively. Titration curves show average of n=3 independent experiments, average±SD.
GST-DYRK1B (5 nM) and DYRKtide (50 μM) (Lucerna-Chem AG, D96-58) diluted in kinase buffer were dispensed in white 384 well plate (3572, Corning, N.Y., USA) (2 μl/well). Following compound dispensing (1 μl), 2 μl of ATP (final concentration 100 μM) was added and incubated for 30 min at room temperature. After that, 5 μl of ADP-Glo™ reagent was dispensed and incubated for 40 min at room temperature. Finally, 10 ul of Kinase Detection Reagent was dispensed and incubated for 30 min before measuring the plate on a Tecan infinite M1000pro plate reader (Luminescence mode).

For another assay, the target named is T2, DYRK1B (Homo sapiens, UniProt Q9Y463).
T2 construct: purchased ThermoFisher
T2 sequence (Q9Y463 whole entry): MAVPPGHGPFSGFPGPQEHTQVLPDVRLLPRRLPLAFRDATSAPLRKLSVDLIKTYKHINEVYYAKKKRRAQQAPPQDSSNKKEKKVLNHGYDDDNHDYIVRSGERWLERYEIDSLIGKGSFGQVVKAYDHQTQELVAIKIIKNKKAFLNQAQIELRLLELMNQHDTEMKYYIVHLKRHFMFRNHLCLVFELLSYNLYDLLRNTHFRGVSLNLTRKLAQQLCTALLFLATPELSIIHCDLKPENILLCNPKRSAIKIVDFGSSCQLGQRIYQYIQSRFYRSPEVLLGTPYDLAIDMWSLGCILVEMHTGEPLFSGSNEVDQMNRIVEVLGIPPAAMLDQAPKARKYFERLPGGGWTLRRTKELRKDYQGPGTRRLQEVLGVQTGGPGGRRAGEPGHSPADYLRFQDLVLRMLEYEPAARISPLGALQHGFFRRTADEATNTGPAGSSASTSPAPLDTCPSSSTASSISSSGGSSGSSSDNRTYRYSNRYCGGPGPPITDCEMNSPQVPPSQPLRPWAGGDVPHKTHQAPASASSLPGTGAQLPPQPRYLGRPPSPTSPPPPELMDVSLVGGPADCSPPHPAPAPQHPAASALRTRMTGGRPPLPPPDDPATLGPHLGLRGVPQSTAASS
As to the kind of experiment: In vitro kinase assay, immunoblot of p27 Ser10 phosphorylation by recombinant DYRK1B. The class given is biochemical. The following applies: recombinant DYRK1B and p27, 100 μM ATP, FIG. 5a. As for the experimental part: (§1) Cells were lysed in lysis buffer (50 mM Tris-HCl pH 7.5, 250 mM NaCl, 0.5% NP-40, 5 mM NaCl, 5 mM NaF, 5 mM EDTA, 0.5 mM EGTA). Protein were separated in 10% SDS/PAGE gels, as previously described. Ser^10-p27 (sc-12939-R) (1:500) and DYRK1B (sc-390417) (1:200) antibodies were purchased from Santa-Cruz, γ-TUBULIN (ab11316) (1:5000) from Abcam, p27 (610242) (1:500) from BD Biosciences and V5 (R960-25) from Life Technology.
28 ng of GST-DYRK1B (ThermoFisher, NP_004705) and 100 ng of GST-p27 were mixed in 45 μl of kinase buffer (50 mM HEPES (pH 7.5), 1 mM DTT, MgCl2, 0.004% Triton X-100). Serial dilution of AZ191, compound of formula 10 or DMSO were added to the mix and incubated for 5 min at room temperature. 100 μM of ATP was added to start the kinase reaction which was carried out with constant shaking at 30° C. for 30 min. The reaction was terminated by addition of Laemmli buffer and boiled 5 min at 95° C. Finally, the proteins were separated by SDS page and detected by immunoblotting.
(A western blot detects proteins with antibodies after separation by electrophoresis.)

In another assay the test system is HT29 cells. As to the kind of experiment: Immunoblot of p27 Ser10 phosphorylation in HT29 cells cultured in hypoxia. The class given is cell-based. As to conditions: FIG. 5b. The procedure:
as §1

Assay [1] has as its system HT29-HRE MTS (hypoxic cancer cells). The experiment in a line: Compound treatment of multicellular tumor spheroids (MTS), SYTOX cell death in the hypoxic core. The following applies: FIGS. 4a to 4e. The class given is cell-based. The procedure:
DMSO was used as negative control, AZ191 as positive control and staurosporine (STS) as a general cytotoxic control. Whole MTS was visualized by Hoechst staining and cell death by SYTOX staining. Scale bar 200 μm. […] Average±SD of n>10 MTS from 3 biological replicates are shown. […] After 72h hours in culture, 10 μl of a mix of SYTOX Orange (S11368) (1:1000) and Hoechst 33258 (1 μM) diluted in DMEM was added to each well of the ULA plate and incubated overnight before image acquisition. MTS were imaged with a 5× objective on Zeiss observer Z.1 microscope equipped with an automated stage, with Hoechst channel used for autofocusing. For each well, images of Hoechst, YFP and SYTOX channels were acquired in the middle of the MTS. Images were analyzed with a custom ImageJ script. Briefly, Hoechst channel images were used to generate a mask of the MTS, which was then scaled to 1:3 and transferred to the SYTOX channel to measure the pixel intensity in the core area of the MTS. HT29-HRE solution (20,000 cells/ml) was dispensed in ULA plates (250 μl/well) and spun at 700 g for 5 min. After 48 h, MTS were treated with 10 μl of serial dilutions of AZ191, compound of formula 10 DMSO or STS. The next day a mix of Hoechst and SYTOX was added to the wells. MTS were then processed as described above.

[2] abbreviates: IC50 values for selected examples, GST-DYRK1B 5 nM, DYRKtide 50 μM, read-out: IC50.
Setting [3] is: average of n=3 independent experiments, read-out: IC50 of DYRK1B kinase activity inhibition (ADP-Glo titration curve).

T1 sequence (Q9Y463 whole entry): as above

Regarding `Cc1cccnc1CNc1nccc(-c2cnn(-c3ccccc3F)c2)n1` [4-[1-(2-fluorophenyl)-1H-pyrazol-4-yl]-N-[(3-methyl-2-pyridinyl)methyl]-2-pyrimidinamine], on GST-DYRK1B (setting [2]), the IC50 is 3.52 µM. On the same count and under the same terms, for `COc1ccccc1-n1cc(-c2ccnc(NCc3cnc(C)cn3)n2)cn1` [4-[1-(2-methoxyphenyl)-1H-pyrazol-4-yl]-N-[(5-methyl-2-pyrazinyl)methyl]-2-pyrimidinamine] the value was 10.3 µM; for `OCCCCCNc1nccc(-c2cnn(-c3ccccc3F)c2)n1` [5-({4-[1-(2-fluorophenyl)-1H-pyrazol-4-yl]pyrimidin-2-yl}amino)pentan-1-ol], 2 µM. Regarding `Fc1ccccc1-n1cc(-c2ccnc(NCC(F)F)n2)cn1` [N-(2,2-difluoroethyl)-4-[1-(2-fluorophenyl)-1H-pyrazol-4-yl]pyrimidin-2-amine], on GST-DYRK1B (setting [2]), the IC50 was 6.98 µM. `NCCCCCNc1nccc(-c2cnn(-c3ccccc3F)c2)n1` [N-{4-[1-(2-fluorophenyl)-1H-pyrazol-4-yl]pyrimidin-2-yl}pentane-1,5-diamine]: the IC50 at GST-DYRK1B (setting [2]) worked out at 3.97 µM. In the case of `NCCCCCNc1nccc(-c2cnn(-c3ccc(F)cc3)c2)n1` [N-{4-[1-(4-fluorophenyl)-1H-pyrazol-4-yl]pyrimidin-2-yl}pentane-1,5-diamine, reference compound], the IC50 at GST-DYRK1B (setting [2]) amounted to 15.6 µM. On to `Fc1ccccc1-n1cc(-c2ccnc(NCc3ccncc3)n2)cn1` [compound of formula 10, 4-(1-(2-fluorophenyl)-1H-pyrazole-4-yl)-N-(pyridine-4-ylmethyl)pyrimidine-2-amine], for which the IC50 at GST-DYRK1B (setting [3]) is 4 µM. The “inhibition of phosphorylation of DYRK1B substrate p27 at serine 10” value on DYRK1B is “inhibited the phosphorylation of DYRK1B substrate p27 at serine 10”. The “inhibition of phosphorylation of p27 at serine 10 in cells” value in the assay with HT29 cells is recorded as “inhibited the phosphorylation of DYRK1B substrate p27 at serine 10”. In addition, in assay [1], the “activity against hypoxic cancer cells” value is “high activity”.

On to `Fc1ccccc1-n1cc(-c2ccnc(NC3CCOCC3)n2)cn1` [compound of formula 12], for which the IC50 at GST-DYRK1B (setting [3]) was determined as 2 µM. The same measure, in the same setting: for `CCNc1nccc(-c2cnn(-c3ccccc3F)c2)n1` [compound of formula 14] the value was 3 µM; for `CC(Cc1ccncc1)Nc1nccc(-c2cnn(-c3ccccc3F)c2)n1` (centres unmarked) [compound of formula 16], 2 µM. Turning to `COc1ccccc1-n1cc(-c2ccnc(NCc3c(C)n[nH]c3C)n2)cn1` [compound of formula 19], the IC50 at GST-DYRK1B (setting [3]) is 3 µM.
